Laboratory results as given in patent US11214594B2, “Antimicrobial peptide having synergistic antibacterial effect with antibiotics on multidrug resistant bacteria, and use thereof” (priority 2016, dated 2022).
In brackets after ≈: the same amount, converted by molar mass. Like-named read-outs stand apart in the source and are kept apart here. Where a SMILES comes first, the peptide text is derived from it.

Assays:
MDREC 1229 = assay: microbe, parasite or virus in culture; type: cell-based, Escherichia coli
Method: (§1) For the antibacterial activity, a minimal inhibitory concentration (MIC) of a peptide in which fungus bodies were not split in an MH medium with sufficient nutrients was measured.
(§2) Specifically, the strains described in the following [Table 2] were purchased and diluted with an MH medium such that the number of bacteria was 2×10^6 colony-forming units (CFUs), 100 μl of each of the diluted strains was aliquoted into a 96-well microtiter plate, and then 100 μl of a peptide solution diluted with the MH medium (solution diluted stepwise at 2: 1) was added to each well.

MDREC 1238 = type: cell-based, Escherichia coli
Method: as §1, §2

MDRPA 2002 = type: cell-based, Pseudomonas aeruginosa
Method: as §1, §2

MDRPA 2003 = type: cell-based, Pseudomonas aeruginosa
Method: as §1, §2

A. baumannii [1] = assay: microbe, parasite or virus in culture; type: cell-based, Acinetobacter baumannii
Method: as §1, §2

MDRAB 12035 = assay: microbe, parasite or virus in culture; type: cell-based, Acinetobacter baumannii
Method: as §1, §2

MDRAB 12036 = type: cell-based, Acinetobacter baumannii
Method: as §1, §2

MDRST 8007 = assay: Minimal inhibitory concentration (MIC), single agent; type: cell-based, Salmonella typhimurium; conditions: agent alone
Method: as §1, §2

MDRST 8009 = type: cell-based, Salmonella typhimurium; conditions: agent alone
Method: as §1, §2

S. epidermidis = assay: microbe, parasite or virus in culture; type: cell-based, Staphylococcus epidermidis
Method: as §1, §2

MRSA 3114 = type: cell-based, Staphylococcus aureus
Method: as §1, §2

MRSA 3126 = type: cell-based, Staphylococcus aureus
Method: as §1, §2

E. coli [2] = assay: microbe, parasite or virus in culture; type: cell-based, Escherichia coli
Method: as §1, §2

P. aeruginosa = assay: microbe, parasite or virus in culture; type: cell-based, Pseudomonas aeruginosa
Method: as §1, §2

S. typhimurium = assay: microbe, parasite or virus in culture; type: cell-based, Salmonella typhimurium
Method: as §1, §2

B. subtilis = assay: microbe, parasite or virus in culture; type: cell-based, Bacillus subtilis
Method: as §1, §2

S. aureus = assay: microbe, parasite or virus in culture; type: cell-based, Staphylococcus aureus
Method: as §1, §2

E. coli [3] = assay: MIC of antibiotic during combined treatment with antimicrobial peptide; type: cell-based, Escherichia coli; conditions: E. coli and A. baumannii; antibiotic MIC with papiliocin
Method: Thereafter, the MIC value of each mixed solution was determined by diluting the antibiotic solution with the MH medium, adding 50 μl of the diluted solution to each well, and performing an experiment even under a reversed condition.

E. coli [4] = type: cell-based, Escherichia coli; conditions: for Peptide MIC during treatment with erythromycin / Peptide MIC during treatment with linezolid / Peptide MIC during treatment with vancomycin: E. coli
Method: (§3) Specifically, the strains described in [Table 2] were prepared and diluted with an MH medium such that the number of bacteria was 2×10^6 colony-forming units (CFUs) per 1 ml, 100 μl of the diluted strains was each aliquoted into a 96-well microtiter plate, and then 50 μl of a peptide solution diluted with the MH medium from the MIC value (solution diluted stepwise at 2: 1) was added to each well. Thereafter, the MIC value of each mixed solution was determined by diluting the antibiotic solution with the MH medium, adding 50 μl of the diluted solution to each well, and performing an experiment even under a reversed condition.

A. baumannii [5] = assay: MIC of antimicrobial peptide during combined treatment with antibiotic; type: cell-based, Acinetobacter baumannii
Method: as §3

gram-negative bacteria = assay: MIC, summary statements for gram-negative bacteria; type: cell-based; conditions: gram-negative bacteria
Method: as §1, §2

gram-positive bacteria = assay: MIC, summary statements for gram-positive bacteria; type: cell-based
Method: as §1, §2

[6] = linezolid 32 μg/ml (Conc./MIC 1/8)
[7] = linezolid 64 μg/ml (Conc./MIC 1/4)
[8] = vancomycin 512 μg/ml (Conc./MIC 1/2)
[9] = vancomycin 1024 μg/ml (Conc./MIC 1)

## CC[C@H](C)[C@H](NC(=O)CN)C(=O)NCC(=O)N[C@@H](C)C(=O)N[C@H](C(=O)N[C@@H](CC(C)C)C(=O)N[C@@H](CCCCN)C(=O)N[C@H](C(=O)N[C@@H](CC(C)C)C(=O)N[C@H](C(=O)N[C@H](C(=O)NCC(=O)N[C@@H](CC(C)C)C(=O)N1CCC[C@H]1C(=O)N[C@@H](C)C(=O)N[C@@H](CC(C)C)C(=O)N[C@H](C(=O)N[C@@H](CO)C(=O)N[C@@H](Cc1c[nH]c2ccccc12)C(=O)N[C@H](C(=O)N[C@@H](CCCCN)C(=O)N[C@@H](CCCNC(=N)N)C(=O)N[C@@H](CCCCN)C(=O)N[C@@H](CCCNC(=N)N)C(=O)N[C@@H](CCC(N)=O)C(=O)N[C@@H](CCC(N)=O)C(N)=O)[C@@H](C)CC)[C@@H](C)CC)[C@@H](C)O)[C@@H](C)O)C(C)C)C(C)C [Melittin, reference compound]
MDREC 1229; MDREC 1229, agent alone
  Minimal inhibitory concentration MIC: 16 µg/mL (≈ 5.62 µM)
MDREC 1238; MDREC 1238, agent alone
  Minimal inhibitory concentration MIC: 32 µg/mL (≈ 11.2 µM)
MDRPA 2002; MDRPA 2002, agent alone
  Minimal inhibitory concentration MIC: 16 µg/mL (≈ 5.62 µM)
MDRPA 2003; MDRPA 2003, agent alone
  Minimal inhibitory concentration MIC: 16 µg/mL (≈ 5.62 µM)
A. baumannii [1]; A. baumannii, agent alone
  Minimal inhibitory concentration MIC: 8 µg/mL (≈ 2.81 µM)
MDRAB 12035; MDRAB 12035, agent alone
  Minimal inhibitory concentration MIC: 8 µg/mL (≈ 2.81 µM)
MDRAB 12036; MDRAB 12036, agent alone
  Minimal inhibitory concentration MIC: 16 µg/mL (≈ 5.62 µM)
MDRST 8007
  Minimal inhibitory concentration MIC: 32 µg/mL (≈ 11.2 µM)
MDRST 8009
  Minimal inhibitory concentration MIC: 32 µg/mL (≈ 11.2 µM)
S. epidermidis; S. epidermidis, agent alone
  Minimal inhibitory concentration MIC: 16 µg/mL (≈ 5.62 µM)
MRSA 3114; MRSA 3114, agent alone
  Minimal inhibitory concentration MIC: 8 µg/mL (≈ 2.81 µM)
MRSA 3126; MRSA 3126, agent alone
  Minimal inhibitory concentration MIC: 16 µg/mL (≈ 5.62 µM)

## CC[C@H](C)[C@H](NC(=O)CNC(=O)[C@H](CC(=O)O)NC(=O)[C@H](CCCNC(=N)N)NC(=O)[C@@H](NC(=O)[C@H](CC(N)=O)NC(=O)[C@H](CCCNC(=N)N)NC(=O)CNC(=O)[C@@H](NC(=O)[C@H](CCCCN)NC(=O)[C@H](CCC(=O)O)NC(=O)[C@@H](NC(=O)[C@H](CCCCN)NC(=O)[C@H](CCCCN)NC(=O)[C@H](Cc1ccccc1)NC(=O)[C@@H](NC(=O)[C@H](CCCCN)NC(=O)[C@H](Cc1c[nH]c2ccccc12)NC(=O)[C@@H](N)CCCNC(=N)N)[C@@H](C)CC)[C@@H](C)CC)C(C)C)C(C)C)C(=O)N[C@H](C(=O)N[C@@H](CCCCN)C(=O)N[C@@H](C)C(=O)NCC(=O)N1CCC[C@H]1C(=O)N[C@@H](C)C(=O)N[C@H](C(=O)N[C@@H](C)C(=O)N[C@H](C(=O)N[C@H](C(=O)NCC(=O)N[C@@H](CCC(N)=O)C(=O)N[C@@H](C)C(=O)N[C@@H](C)C(=O)N[C@H](C(=O)N[C@H](C(=O)N[C@H](C(=O)N[C@@H](CCCCN)C(N)=O)C(C)C)C(C)C)[C@@H](C)O)C(C)C)C(C)C)C(C)C)[C@@H](C)CC [Papiliocin, reference compound] (H-RWKIFKKIEKVGRNVRDGIIKAGPAVAVVGQAATVVK-NH2; N-terminus and C-terminus assumed)
E. coli [2]
  Peptide MIC, single treatment: 8 µg/mL
E. coli [2]; 16 h
  Minimal inhibitory concentration MIC: 8 µg/mL (≈ 2 µM)
MDREC 1229
  Minimal inhibitory concentration MIC: 8 µg/mL (≈ 2 µM)
MDREC 1238
  Minimal inhibitory concentration MIC: 16 µg/mL (≈ 4 µM)
P. aeruginosa
  Minimal inhibitory concentration MIC: 16 µg/mL (≈ 4 µM)
MDRPA 2002
  Minimal inhibitory concentration MIC: 16 µg/mL (≈ 4 µM)
MDRPA 2003
  Minimal inhibitory concentration MIC: 16 µg/mL (≈ 4 µM)
A. baumannii [1]
  Minimal inhibitory concentration MIC: 8 µg/mL (≈ 2 µM)
  Peptide MIC, peptide alone: 8 µg/mL
MDRAB 12035
  Minimal inhibitory concentration MIC: 8 µg/mL (≈ 2 µM)
MDRAB 12036
  Minimal inhibitory concentration MIC: 16 µg/mL (≈ 4 µM)
S. typhimurium
  Minimal inhibitory concentration MIC: 16 µg/mL (≈ 4 µM)
B. subtilis
  Minimal inhibitory concentration MIC: >128 µg/mL
S. epidermidis
  Minimal inhibitory concentration MIC: >128 µg/mL
S. aureus
  Minimal inhibitory concentration MIC: >128 µg/mL
MRSA 3114; 3114
  Minimal inhibitory concentration MIC: >128 µg/mL
MRSA 3126; 3126
  Minimal inhibitory concentration MIC: >128 µg/mL
E. coli [3]
  Synergistic effect of combination with the antibiotics (in words): does not have a great synergistic effect
E. coli [4]; erythromycin 16 μg/ml (Conc./MIC 1/8)
  Peptide MIC during treatment with erythromycin: 4 µg/mL
E. coli [4]; erythromycin 32 μg/ml (Conc./MIC 1/4)
  Peptide MIC during treatment with erythromycin: 4 µg/mL
E. coli [4]; erythromycin 64 μg/ml (Conc./MIC 1/2)
  Peptide MIC during treatment with erythromycin: 4 µg/mL
E. coli [4]; erythromycin […] (Conc./MIC 1)
  Peptide MIC during treatment with erythromycin: 0 µg/mL
E. coli [4]; [6]
  Peptide MIC during treatment with linezolid: 8 µg/mL
E. coli [4]; [7]
  Peptide MIC during treatment with linezolid: 4 µg/mL
E. coli [4]; linezolid […] (Conc./MIC 1)
  Peptide MIC during treatment with linezolid: 0 µg/mL
E. coli [4]; linezolid […] (Conc./MIC 1/2)
  Peptide MIC during treatment with linezolid: 4 µg/mL
E. coli [4]; [8]
  Peptide MIC during treatment with vancomycin: 2 µg/mL
E. coli [4]; [9]
  Peptide MIC during treatment with vancomycin: 0 µg/mL
E. coli [4]; vancomycin […] (Conc./MIC 1/4)
  Peptide MIC during treatment with vancomycin: 2 µg/mL
E. coli [4]; vancomycin […] (Conc./MIC 1/8)
  Peptide MIC during treatment with vancomycin: 4 µg/mL
E. coli [4]; papiliocin as comparative control (Table 34)
  Synergistic effect on peptide MIC when mixed with antibiotics (in words): does not have a synergistic effect
A. baumannii [5]; erythromycin 4 μg/ml (Conc./MIC 1/8)
  Peptide MIC during treatment with erythromycin: 8 µg/mL
A. baumannii [5]; erythromycin 8 μg/ml (Conc./MIC 1/4)
  Peptide MIC during treatment with erythromycin: 4 µg/mL
A. baumannii [5]; erythromycin 16 μg/ml (Conc./MIC 1/2)
  Peptide MIC during treatment with erythromycin: 4 µg/mL
A. baumannii [5]; erythromycin 32 μg/ml (Conc./MIC 1)
  Peptide MIC during treatment with erythromycin: 0 µg/mL
A. baumannii [5]; [6]
  Peptide MIC during treatment with linezolid: 8 µg/mL
A. baumannii [5]; [7]
  Peptide MIC during treatment with linezolid: 4 µg/mL
A. baumannii [5]; linezolid […] (Conc./MIC 1)
  Peptide MIC during treatment with linezolid: 0 µg/mL
A. baumannii [5]; linezolid […] (Conc./MIC 1/2)
  Peptide MIC during treatment with linezolid: 4 µg/mL
A. baumannii [5]; [8]
  Peptide MIC during treatment with vancomycin: 2 µg/mL
A. baumannii [5]; [9]
  Peptide MIC during treatment with vancomycin: 0 µg/mL
A. baumannii [5]; vancomycin […] (Conc./MIC 1/4)
  Peptide MIC during treatment with vancomycin: 2 µg/mL
A. baumannii [5]; vancomycin […] (Conc./MIC 1/8)
  Peptide MIC during treatment with vancomycin: 4 µg/mL
gram-negative bacteria
  Antibacterial activity (in words): very high antibacterial activity
gram-positive bacteria
  Antibacterial activity (in words): very low antibacterial activity
